pIC50: −log10 of the molar value.
What follows are compounds tested on 5-LO (assay: lipoxygenase inhibition: release of leukotriene B4 in polymorphonuclear human leukocytes (PMN) after addition of substances and Ca ionophore, reverse phase HPLC). Conditions: LTB4 release.
Assay type: cell-based
Experimental: The pharmacological effects of the substances according to the invention are determined by the following method:
As a measure of the lipoxygenase inhibition, the release of leukotriene B4 (LTB.) in polymorphonuclear human leukocytes (PMN) was determined by addition of substances and Ca ionophore by means of reverse phase HPLC according to Borgeat, P. et al., Proc. Nat. Acad. Sci, 76, 2148-2152 (1979).
Table 1 lists by way of example the values obtained by this test for some compounds according to the invention: […]

Row | pIC50 | Structure (SMILES)
1 | 6.30 | O=C(Nc1ccccn1)C(c1ccc(OCc2ccc3ccccc3n2)cc1)C1CCCCCC1 (stereo not shown) [Example 1, N-(2-Pyridyl)-2-[4-(quinolin-2-yl-methoxy)phenyl]-2-cycloheptyl-acetamide]
2 | 6.54 | O=C(NC1=NCCS1)C(c1ccc(OCc2ccc3ccccc3n2)cc1)C1CCCCCC1 (stereo not shown) [Example 3, N-(2-Thiazolinyl)-2-[4-(quinolin-2-yl-methoxy)phenyl]-2-cycloheptyl-acetamide]
3 | 6.59 | O=C(Nc1nnn[nH]1)C(c1ccc(OCc2ccc3ccccc3n2)cc1)C1CCCCCC1 (stereo not shown) [Example 2, N-(5-Tetrazolyl)-2-[4-(quinoline-2-yl-methoxy)phenyl]-2-cycloheptyl-acetamide]
4 | 6.37 | O=C(Nc1nccs1)C(c1ccc(OCc2ccc3ccccc3n2)cc1)C1CCCCCC1 (stereo not shown) [Example 4, N-(2-Thiazolyl)-2-[4-(quinolin-2-yl-methoxy)phenyl]-2-cycloheptyl-acetamide]

— patent publication US5266578A, “Heterocyclically substituted quinolylmethoxy-phenylacetamides” (Bayer Aktiengesellschaft, priority 1991, dated 1993)
